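Compound exposure: 48 hours, 5 concentrations, 96-well plates. At the GI50, growth is halved.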 Activity calls are given as the source filed them. Rule as the data show it: active = GI50 up to about 1.1 µM and inactive = higher.
Assays:
Assay in all cases: NCI-60 cell line screen, 48 h
786-0 = tested on: 786-0
A498 = tested on: A498
A549 = tested on: A549
ACHN = tested on: ACHN
CAKI-1 = tested on: CAKI-1
COLO 205 = tested on: COLO 205
DU-145 = tested on: DU-145
HCT-116 = tested on: HCT-116
HCT-15 = tested on: HCT-15
HL-60 = tested on: HL-60
HOP-62 = tested on: HOP-62
HOP-92 = tested on: HOP-92
HT-29 = tested on: HT-29
Hs-578T = tested on: Hs-578T
IGROV-1 = tested on: IGROV-1
K562 = tested on: K562
KM12 = tested on: KM12
M14 = tested on: M14
MCF7 = tested on: MCF7
MDA-MB-231 = tested on: MDA-MB-231
MDA-MB-435 = tested on: MDA-MB-435
MOLT-4 = tested on: MOLT-4
Malme-3M = tested on: Malme-3M
NCI-H226 = tested on: NCI-H226
NCI-H23 = tested on: NCI-H23
NCI-H460 = tested on: NCI-H460
NCI-H522 = tested on: NCI-H522
NCI/ADR-RES = tested on: NCI/ADR-RES
OVCAR-3 = tested on: OVCAR-3
OVCAR-4 = tested on: OVCAR-4
OVCAR-5 = tested on: OVCAR-5
OVCAR-8 = tested on: OVCAR-8
PC-3 = tested on: PC-3
RPMI-8226 = tested on: RPMI-8226
RXF 393 = tested on: RXF 393
SF-268 = tested on: SF-268
SF-295 = tested on: SF-295
SF-539 = tested on: SF-539
SK-MEL-28 = tested on: SK-MEL-28
SK-MEL-2 = tested on: SK-MEL-2
SK-MEL-5 = tested on: SK-MEL-5
SK-OV-3 = tested on: SK-OV-3
SN12C = tested on: SN12C
SNB-19 = tested on: SNB-19
SNB-75 = tested on: SNB-75
SR = tested on: SR
SW-620 = tested on: SW-620
T47D = tested on: T47D
TK-10 = tested on: TK-10
U-251 = tested on: U-251
UACC-257 = tested on: UACC-257
UACC-62 = tested on: UACC-62
UO-31 = tested on: UO-31
CCRF-CEM = tested on: CCRF-CEM
EKVX = tested on: EKVX
HCC 2998 = tested on: HCC 2998
LOX IMVI = tested on: LOX IMVI
MDA-N = tested on: MDA-N
BT-549 = tested on: BT-549

CC(=O)Oc1cc(/C=C/c2ccc(O)cc2)cc(OC(C)=O)c1
GI50 (786-0): 37.5 µM (inactive)
GI50 (A498): 25.4 µM (inactive)
GI50 (A549): 24.8 µM (inactive)
GI50 (ACHN): 9.59 µM (inactive)
GI50 (CAKI-1): 35.7 µM (inactive)
GI50 (COLO 205): > 100 µM (inactive)
GI50 (DU-145): 27.2 µM (inactive)
GI50 (HCT-116): 35.6 µM (inactive)
GI50 (HCT-15): 26.5 µM
GI50 (HL-60): 18.8 µM (inactive)
GI50 (HOP-62): 48.2 µM (inactive)
GI50 (HOP-92): 25 µM (inactive)
GI50 (HT-29): 19.3 µM (inactive)
GI50 (Hs-578T): 58.5 µM (inactive)
GI50 (IGROV-1): 64.9 µM (inactive)
GI50 (K562): 20.7 µM (inactive)
GI50 (KM12): 24.1 µM (inactive)
GI50 (M14): 64.6 µM (inactive)
GI50 (MCF7): 40 µM (inactive)
GI50 (MDA-MB-231): 25.5 µM (inactive)
GI50 (MDA-MB-435): 28.1 µM (inactive)
GI50 (MOLT-4): 16.8 µM (inactive)
GI50 (Malme-3M): 17.7 µM (inactive)
GI50 (NCI-H226): 24.7 µM (inactive)
GI50 (NCI-H23): 11.7 µM (inactive)
GI50 (NCI-H460): 33.9 µM (inactive)
GI50 (NCI-H522): 26 µM (inactive)
GI50 (NCI/ADR-RES): 16.3 µM (inactive)
GI50 (OVCAR-3): 48 µM (inactive)
GI50 (OVCAR-4): 18.3 µM (inactive)
GI50 (OVCAR-5): 46 µM (inactive)
GI50 (OVCAR-8): 35.8 µM (inactive)
GI50 (PC-3): 21.5 µM (inactive)
GI50 (RPMI-8226): 4.7 µM (inactive)
GI50 (RXF 393): 58.1 µM (inactive)
GI50 (SF-268): 43.2 µM (inactive)
GI50 (SF-295): 28.8 µM (inactive)
GI50 (SF-539): 12.8 µM (inactive)
GI50 (SK-MEL-28): 66.5 µM (inactive)
GI50 (SK-MEL-2): 63.5 µM (inactive)
GI50 (SK-MEL-5): 14.5 µM (inactive)
GI50 (SK-OV-3): > 100 µM (inactive)
GI50 (SN12C): 19 µM (inactive)
GI50 (SNB-19): 55.8 µM (inactive)
GI50 (SNB-75): 22.1 µM (inactive)
GI50 (SR): 17.3 µM (inactive)
GI50 (SW-620): 26.1 µM (inactive)
GI50 (T47D): 51.3 µM (inactive)
GI50 (TK-10): 24.9 µM (inactive)
GI50 (U-251): 29.9 µM (inactive)
GI50 (UACC-257): 30.9 µM (inactive)
GI50 (UACC-62): 18.2 µM (inactive)
GI50 (UO-31): 36.4 µM (inactive)

O=c1cc(-c2ccccc2F)[nH]c2ccc(N3CCCC3)cc12
GI50 (786-0): 0.0442 µM (active)
GI50 (A498): 0.0215 µM (active)
GI50 (A549): 0.0504 µM (active)
GI50 (ACHN): < 0.001 µM (active)
GI50 (CAKI-1): < 0.001 µM (active)
GI50 (CCRF-CEM): 0.0461 µM (active)
GI50 (COLO 205): 0.0557 µM (active)
GI50 (DU-145): 0.0535 µM (active)
GI50 (EKVX): 0.00138 µM (active)
GI50 (HCC 2998): 0.00179 µM (active)
GI50 (HCT-15): 0.033 µM
GI50 (HL-60): > 100 µM (inactive)
GI50 (HOP-62): 0.34 µM (active)
GI50 (HT-29): 0.0284 µM (active)
GI50 (Hs-578T): 0.0201 µM (active)
GI50 (IGROV-1): 0.792 µM (active)
GI50 (K562): 0.0257 µM (active)
GI50 (KM12): 0.0955 µM (active)
GI50 (LOX IMVI): 0.0398 µM (active)
GI50 (M14): 0.0301 µM (active)
GI50 (MCF7): 0.00745 µM (active)
GI50 (MDA-MB-231): 0.00122 µM (active)
GI50 (MDA-MB-435): < 0.001 µM (active)
GI50 (MDA-N): 0.0135 µM (active)
GI50 (MOLT-4): 0.078 µM (active)
GI50 (Malme-3M): > 100 µM (inactive)
GI50 (NCI-H23): 0.00155 µM (active)
GI50 (NCI-H460): 0.0417 µM (active)
GI50 (NCI-H522): 0.0326 µM (active)
GI50 (NCI/ADR-RES): 0.0352 µM (active)
GI50 (OVCAR-4): 0.0269 µM (active)
GI50 (OVCAR-5): 0.1 µM (active)
GI50 (OVCAR-8): 0.0624 µM (active)
GI50 (PC-3): < 0.001 µM (active)
GI50 (RPMI-8226): 0.0468 µM (active)
GI50 (RXF 393): 13 µM (inactive)
GI50 (SF-268): 0.0363 µM (active)
GI50 (SF-539): < 0.001 µM (active)
GI50 (SK-MEL-28): 0.465 µM (active)
GI50 (SK-MEL-2): 0.0167 µM (active)
GI50 (SK-MEL-5): 0.0419 µM (active)
GI50 (SK-OV-3): > 100 µM (inactive)
GI50 (SN12C): 0.17 µM (active)
GI50 (SNB-19): 0.0214 µM (active)
GI50 (SNB-75): 63.2 µM (inactive)
GI50 (SR): 0.498 µM (active)
GI50 (SW-620): < 0.001 µM (active)
GI50 (T47D): > 10 µM (inactive)
GI50 (TK-10): 0.237 µM (active)
GI50 (U-251): 0.0381 µM (active)
GI50 (UACC-257): 0.1 µM (active)
GI50 (UACC-62): 0.0185 µM (active)
GI50 (UO-31): 0.00274 µM (active)

NCC(=O)N[C@H]1c2ccsc2/C(=N/O)[C@H]1O
GI50 (A498): > 100 µM (inactive)
GI50 (A549): > 100 µM (inactive)
GI50 (BT-549): > 100 µM (inactive)
GI50 (CAKI-1): > 100 µM (inactive)
GI50 (CCRF-CEM): > 100 µM (inactive)
GI50 (COLO 205): > 100 µM (inactive)
GI50 (DU-145): > 100 µM (inactive)
GI50 (EKVX): > 100 µM (inactive)
GI50 (HCC 2998): > 100 µM (inactive)
GI50 (HCT-116): > 100 µM (inactive)
GI50 (HCT-15): > 100 µM
GI50 (HL-60): > 100 µM (inactive)
GI50 (HOP-62): > 100 µM (inactive)
GI50 (HOP-92): > 100 µM (inactive)
GI50 (HT-29): > 100 µM (inactive)
GI50 (IGROV-1): > 100 µM (inactive)
GI50 (K562): > 100 µM (inactive)
GI50 (LOX IMVI): > 100 µM (inactive)
GI50 (M14): > 100 µM (inactive)
GI50 (MCF7): > 100 µM (inactive)
GI50 (MDA-MB-231): > 100 µM (inactive)
GI50 (MDA-MB-435): > 100 µM (inactive)
GI50 (MDA-N): > 100 µM (inactive)
GI50 (MOLT-4): > 100 µM (inactive)
GI50 (Malme-3M): > 100 µM (inactive)
GI50 (NCI-H226): > 100 µM (inactive)
GI50 (NCI-H23): > 100 µM (inactive)
GI50 (NCI-H460): > 100 µM (inactive)
GI50 (NCI/ADR-RES): > 100 µM (inactive)
GI50 (OVCAR-3): > 100 µM (inactive)
GI50 (OVCAR-4): 68.9 µM (inactive)
GI50 (OVCAR-5): > 100 µM (inactive)
GI50 (OVCAR-8): > 100 µM (inactive)
GI50 (PC-3): > 100 µM (inactive)
GI50 (RXF 393): > 100 µM (inactive)
GI50 (SF-295): > 100 µM (inactive)
GI50 (SF-539): > 100 µM (inactive)
GI50 (SK-MEL-28): > 100 µM (inactive)
GI50 (SK-MEL-2): > 100 µM (inactive)
GI50 (SK-MEL-5): > 100 µM (inactive)
GI50 (SK-OV-3): > 100 µM (inactive)
GI50 (SN12C): > 100 µM (inactive)
GI50 (SR): > 100 µM (inactive)
GI50 (SW-620): > 100 µM (inactive)
GI50 (T47D): > 100 µM (inactive)
GI50 (TK-10): > 100 µM (inactive)
GI50 (U-251): > 100 µM (inactive)
GI50 (UACC-257): > 100 µM (inactive)
GI50 (UACC-62): > 100 µM (inactive)
GI50 (UO-31): > 100 µM (inactive)

From ChEMBL document CHEMBL1201862, “PubChem BioAssay data set” (2004)
